Test results: US12240841B2, “FXR small molecule agonist and preparation method therefor and use thereof” (Shanghai Institute of Materia Medica, Chinese Academy of …, priority 2019, dated 2025)

Experiments:
[1] = molecular target: T1, recombinant GST-FXR fusion protein (Homo sapiens, UniProt Q96RI1); assay: FXR activity at the molecular level (AlphaScreen); format: biochemical
T1 sequence (Q96RI1 1-486): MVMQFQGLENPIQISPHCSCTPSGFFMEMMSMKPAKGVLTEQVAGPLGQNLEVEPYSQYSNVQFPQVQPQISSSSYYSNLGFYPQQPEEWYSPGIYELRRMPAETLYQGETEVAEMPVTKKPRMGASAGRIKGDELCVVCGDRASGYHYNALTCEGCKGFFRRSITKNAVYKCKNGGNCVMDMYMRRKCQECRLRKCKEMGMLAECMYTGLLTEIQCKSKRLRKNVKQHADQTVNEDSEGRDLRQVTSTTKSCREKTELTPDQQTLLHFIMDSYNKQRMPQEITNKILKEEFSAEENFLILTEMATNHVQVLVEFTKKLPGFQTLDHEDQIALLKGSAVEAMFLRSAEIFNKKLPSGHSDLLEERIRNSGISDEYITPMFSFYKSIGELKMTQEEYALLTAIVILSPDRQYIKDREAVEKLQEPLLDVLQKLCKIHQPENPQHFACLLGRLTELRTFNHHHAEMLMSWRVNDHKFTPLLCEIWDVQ
Procedure: Test Method for FXR Activity at the Molecular Level
FXR activity was determined using recombinant GST-FXR fusion protein by Perkin Elmer's AlphaScreen detection reagent. The reaction in this method was carried out in a 384-well plate, and the total reaction volume was 15 μL. The mixture of protein, agonist, co-regulatory factor, AlphaScreen® acceptor beads and AlphaScreen® donor beads was reacted in a buffer containing Tris-HCl 50 mM (pH7.4), 50 mM NaCl, BSA 0.1%, and 1 mM DTT. The FXR activity was reflected by the fluorescence signal intensity at 570 nm wavelength detected by the Envision fluorescence detector. The value of EC50 was calculated by the software Graphpad Prism 5.

[2] = molecular target: T2, FXR receptor (Homo sapiens, UniProt Q96RI1); assay: FXR activity at the cell level (FXRE luciferase reporter in 293T cells); format: cell-based; conditions: 293T cells
T2 construct: expressed in transfected cells; host or cells: 293T cells
T2 sequence (Q96RI1 1-486): T1 sequence (Q96RI1 1-486)
Procedure: The cells were cultured for 24 hours to ensure plasmid expression. Then the FXR receptor agonist to be tested was added and acted for 18 hours. The fluorescence intensity was detected using luciferase kit (steady-Glo Luciferase Assay system) to reflect the compound's activation efficiency on the FXR receptor. […] The appropriate concentration interval was selected, and the dose-dependent relationship, that is, the EC50 value, was calculated.

[3] = tested on: TAA-induced hepatic fibrosis model rats; assay: TAA-induced hepatic fibrosis model rats; format: in vivo, rat
Procedure: 1) Pharmacodynamic Evaluation of Compound 1 (LXF-32) on TAA-Induced Hepatic Fibrosis Model Rats
In this experiment, TAA induced hepatic fibrosis model rats were used to investigate the effect of long-term oral administration of compound 1 on hepatic fibrosis in the model rats.
Experimental method: Male SD rats were intraperitoneally injected with thioacetamide (TAA, dissolved in normal saline) at a dose of 150 mg/kg three times a week to induce a liver fibrosis model. Four weeks after the model was made, the blood was taken from the retro-ocular venous plexus of the rats to detect serum ALP indicators. […] During the administration period, the animal's food intake and body weight were monitored. After 2 weeks of administration, the blood was taken from the retro-ocular venous plexus of the rats to detect serum ALP indicators. After 4 weeks of administration, the blood was taken from the retro-ocular venous plexus and the rats were dislocated and sacrificed. The livers were taken out and weighed. Part of the liver was fixed with 4% paraformaldehyde, and part of the liver was frozen at −80° C. During the whole experiment, another 8 rats in the same cage were injected intraperitoneally with the same volume of normal saline as the system normal control group (WT). This experiment detected indicators such as the level of liver function index ALP in serum, the expression of α-SMA and Col1α1 (fibrosis-related genes) gene level in the liver, the content of hydroxyproline (a characteristic amino acid of collagen) in the liver, and the pathological changes of the liver (Sirius scarlet stain), etc., thereby reflecting whether the compound has the effect of relieving liver fibrosis.

[4] = 20 mg/kg oral once a day, 4 weeks

O=c1[nH]c(-c2cccc(N3CCC(OCc4c(-c5c(Cl)cccc5Cl)noc4C4CC4)CC3)c2)no1 [Example 1]
EC50 [1]: 446 nM
Activity relative to OCA (%) 10 μM ([2]; 10 μM, luciferase reporter, relative to OCA): 109%
EC50 ([2]; FXRE luciferase reporter, read-out: EC50 (cell level)): 110 nM
collagen content in the liver (Sirius scarlet stained sections) [3, 4]: reduced the collagen content in the liver, because there were large differences within the model group, and there was no statistical difference
content of hydroxyproline in liver tissue [3, 4]: reduced
expression of Col1α1 mRNA in liver tissue [3, 4]: significantly down-regulated
expression of α-SMA mRNA in liver tissue [3, 4]: significantly down-regulated
level of ALP in serum ([3]; 20 mg/kg oral once a day, 4 weeks, vs model control): significantly reduced
effect on liver fibrosis (summary) ([3]; long-term administration): a certain alleviating effect
